Results as given in ChEMBL document CHEMBL1201862, “PubChem BioAssay data set” (2004).
The source made the active and inactive calls. Cut-off read from the data, not from the text of the source: active = IC50 of 10 µM or less and inactive = more.

Assays:
[1] = target: Melanin-concentrating hormone receptor 1 (Homo sapiens, UniProt Q99705); experiment: Late-stage fluorescence-based counterscreen for antagonists of the G-protein coupled receptor 7 (GPR7): cell-based dose response assay to identify antagonists of the melanin-concentrating hormone receptor 1 (MCHR1) Set 6.; type: functional
[2] = target: T1, Neuropeptides B/W receptor type 1 (Homo sapiens, UniProt P48145); experiment: human NPBW1 receptor blockade, IC50 – cell-based, fluorescence, dose response, set 6, late-stage follow-up (AID 588583); type: functional
T1 sequence (P48145 whole entry): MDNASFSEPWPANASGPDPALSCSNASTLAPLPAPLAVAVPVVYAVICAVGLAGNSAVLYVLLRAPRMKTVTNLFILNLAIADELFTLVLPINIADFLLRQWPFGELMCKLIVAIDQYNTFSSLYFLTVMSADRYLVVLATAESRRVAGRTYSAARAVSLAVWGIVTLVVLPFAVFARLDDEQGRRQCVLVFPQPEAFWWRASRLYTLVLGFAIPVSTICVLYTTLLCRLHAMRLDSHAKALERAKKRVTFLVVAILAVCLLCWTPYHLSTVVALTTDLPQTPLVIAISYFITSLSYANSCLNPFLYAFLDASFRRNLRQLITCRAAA

Chain of Melanin-concentrating hormone receptor 1 (Q99705 whole entry): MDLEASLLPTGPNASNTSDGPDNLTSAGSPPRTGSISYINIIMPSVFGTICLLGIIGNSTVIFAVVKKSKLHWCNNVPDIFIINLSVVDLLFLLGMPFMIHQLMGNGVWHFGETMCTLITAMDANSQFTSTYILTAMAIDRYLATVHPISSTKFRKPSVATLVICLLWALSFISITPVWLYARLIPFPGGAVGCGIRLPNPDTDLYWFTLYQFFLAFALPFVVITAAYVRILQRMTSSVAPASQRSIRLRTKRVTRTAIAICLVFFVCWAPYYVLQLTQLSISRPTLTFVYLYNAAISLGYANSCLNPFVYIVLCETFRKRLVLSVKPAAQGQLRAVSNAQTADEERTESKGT

N#CC(c1ccccc1)c1c(S)cnn(Cc2cccc3ccccc23)c1=O (configuration not stated)
IC50 [1]: > 20 µM (inactive) | IC50 [2]: > 20 µM (inactive)
